Results: patent US9512107B2, “Therapeutically active compositions and their methods of use” (Agios Pharmaceuticals, Inc., priority 2012, dated 2016)

Legend:
[1] = test system: U87MG pLVX-IDH2 R140Q-neo cells; assay: U87MG pLVX-IDH2 R140Q-neo cell based assay, 2-HG in media by LC-MS at 48 hours; settings: for IC50: Homo sapiens, U-87 MG
Method: U87MG pLVX-IDH2 R140Q-neo cells are grown in T125 flasks in DMEM containing 10% FBS, 1× penicillin/streptomycin and 500 μg/mL G418. They are harvested by trypsin and seeded into 96 well white bottom plates at a density of 5000 cell/well in 100 μl/well in DMEM with 10% FBS. No cells are plated in columns 1 and 12. Cells are incubated overnight at 37° C. in 5% CO2. The next day compounds are made up at 2× concentration and 100 ul are added to each cell well. The final concentration of DMSO is 0.2% and the DMSO control wells are plated in row G. The plates are then placed in the incubator for 48 hours. At 48 hours, 100 ul of media is removed from each well and analyzed by LC-MS for 2-HG concentrations. The cell plate is placed back in the incubator for another 24 hours. At 72 hours post compound addition, 10 mL/plate of Promega Cell Titer Glo reagent is thawed and mixed. The cell plate is removed from the incubator and allowed to equilibrate to room temperature. Then 100 ul of reagent is added to each well of media. The cell plate is then placed on an orbital shaker for 10 minutes and then allowed to sit at room temperature for 20 minutes. The plate is then read for luminescence with an integration time of 500 ms to determine compound effects on growth inhibition.

IDH2 R140Q = target: T1, IDH2 R140Q (Homo sapiens, UniProt P48735, R140Q); assay: IDH2 R140Q enzymatic assay (cofactor depletion, similar format); format: biochemical; settings: read-out: Enz R140Q
T1 sequence (P48735 40-452 R140Q): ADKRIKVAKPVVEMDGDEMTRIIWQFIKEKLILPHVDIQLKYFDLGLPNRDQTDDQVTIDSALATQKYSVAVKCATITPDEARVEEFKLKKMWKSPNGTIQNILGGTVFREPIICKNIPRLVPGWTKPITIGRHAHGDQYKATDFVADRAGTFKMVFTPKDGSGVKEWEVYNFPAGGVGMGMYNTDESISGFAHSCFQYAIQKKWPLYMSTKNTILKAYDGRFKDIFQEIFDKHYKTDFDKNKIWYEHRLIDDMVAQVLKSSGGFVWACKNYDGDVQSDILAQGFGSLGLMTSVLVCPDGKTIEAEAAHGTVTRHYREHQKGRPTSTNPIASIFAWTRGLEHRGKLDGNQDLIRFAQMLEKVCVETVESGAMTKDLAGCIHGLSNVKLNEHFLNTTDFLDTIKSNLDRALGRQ
Method: [The source words this procedure for another variant and says it was used here with some conditions changed.] Compounds are assayed for IDH2 R172K inhibitory activity through a cofactor depletion assay. […] The reaction is terminated by the addition of a second enzyme, diaphorase, and a corresponding substrate, resazurin. Diaphorase reduces resazurin to the highly fluorescent resorufin with the concomitant oxidation of NADPH to NADP, both halting the IDH2 reaction by depleting the available cofactor pool and facilitating quantitation of the amount of cofactor remaining after a specific time period through quantitative production of an easily detected fluorophore.
The test compound is then incubated for one hour at room temperature with the enzyme; before starting the IDH2 reaction with the addition of 10 μl of substrate mix containing 50 μM NADPH and 6.3 mM α-KG in the buffer described above. After a further one hour of incubation at room temperature, the reaction is halted and the remaining NADPH measured through conversion of resazurin to resorufin by the addition of 25 μl Stop Mix (36 μg/ml diaphorase enzyme and 60 μM resazurin; in buffer).

SMILES	IC50 [1]	IC50 (IDH2 R140Q)	Cell R140Q [1]
Fc1cncc(Nc2nc(NC3CCC3)nc(-c3ccccn3)n2)c1 [Compound 322, N^2-cyclobutyl-N^4-(5-fluoropyridin-3-yl)-6-(pyridin-2-yl)-1,3,5-triazine-2,4-diamine]	< 100 nM	100 to 1000 nM	–
N#CC1(Nc2nc(Nc3ccncc3)nc(-c3ccccc3)n2)CCC1 [Compound 284, 1-(4-phenyl-6-(pyridin-4-ylamino)-1,3,5-triazin-2-ylamino)cyclobutanecarbonitrile]	100 to 1000 nM	100 to 1000 nM	–
Fc1cc(Nc2nc(NC3COC3)nc(-c3cccc(C(F)(F)F)n3)n2)ccn1 [Compound 377, N^2-(2-fluoropyridin-4-yl)-N^4-(oxetan-3-yl)-6-(6-(trifluoromethyl)pyridin-2-yl)-1,3,5-triazine-2,4-diamine]	< 100 nM	100 to 1000 nM	–
CC(C)Nc1nc(Nc2ccncc2)nc(-c2cccc(O)c2)n1 [Compound 328, 3-[4-Isopropylamino-6-(pyridin-4-ylamino)-[1,3,5]triazin-2-yl]-phenol]	< 100 nM	< 100 nM	–
CC(C)Nc1nc(Nc2ccc(C3CC3)nc2)nc(-c2ccccc2)n1 [Compound 316, N^2-(6-cyclopropylpyridin-3-yl)-N^4-isopropyl-6-phenyl-1,3,5-triazine-2,4-diamine]	100 to 1000 nM	100 to 1000 nM	–
Cc1cccc(-c2nc(Nc3cccc(S(C)(=O)=O)c3)nc(NC(C)C)n2)n1 [Compound 359, N^2-isopropyl-6-(6-methylpyridin-2-yl)-N^4-(3-(methylsulfonyl)phenyl)-1,3,5-triazine-2,4-diamine]	100 to 1000 nM	100 to 1000 nM	–
CC(C)(O)CNc1nc(Nc2cncc(F)c2)nc(-c2cccc(Cl)n2)n1 [Compound 390, 1-(4-(6-chloropyridin-2-yl)-6-(5-fluoropyridin-3-ylamino)-1,3,5-triazin-2-ylamino)-2-methylpropan-2-ol]	100 to 1000 nM	1000 to 10000 nM	–
CC(C)Nc1nc(Nc2cncc(C#N)c2)nc(-c2cccc(C(F)(F)F)n2)n1 [Compound 401, 5-(4-(isopropylamino)-6-(6-(trifluoromethyl)pyridin-2-yl)-1,3,5-triazin-2-ylamino)nicotinonitrile]	< 100 nM	100 to 1000 nM	–
Fc1ccc(Nc2nc(NC3CCC3)nc(-c3cccc(Cl)n3)n2)cn1 [Compound 325, 6-(6-chloropyridin-2-yl)-N^2-cyclobutyl-N^4-(6-fluoropyridin-3-yl)-1,3,5-triazine-2,4-diamine]	< 100 nM	< 100 nM	–
Fc1cncc(Nc2nc(NC3CCC3)nc(-c3ccccc3F)n2)c1 [Compound 318, N-Cyclobutyl-6-(2-fluoro-phenyl)-N′-(5-fluoro-pyridin-3-yl)-[1,3,5]triazine-2,4-diamine]	< 100 nM	< 100 nM	–
CS(=O)(=O)c1cccc(Nc2nc(NC3CCOCC3)nc(-c3ccccc3)n2)c1 [Compound 306]	< 100 nM	100 to 1000 nM	–
Fc1cc(Nc2nc(NCC3CCCO3)nc(-c3cccc(C(F)(F)F)n3)n2)ccn1 (stereo not shown) [Compound 402, N^2-(2-fluoropyridin-4-yl)-N^4-((tetrahydrofuran-2-yl)methyl)-6-(6-(trifluoromethyl)pyridin-2-yl)-1,3,5-triazine-2,4-diamine]	< 100 nM	100 to 1000 nM	–
Fc1cncc(Nc2nc(NC3C4COCC43)nc(-c3cccc(C(F)(F)F)n3)n2)c1 (stereo not shown) [Compound 411, N^2-(3-oxabicyclo[3.1.0]hexan-6-yl)-N^4-(5-fluoropyridin-3-yl)-6-(6-(trifluoromethyl)pyridin-2-yl)-1,3,5-triazine-2,4-diamine]	< 100 nM	1000 to 10000 nM	–
Fc1ccc(Nc2nc(NC3COC3)nc(-c3cccc(C(F)(F)F)n3)n2)cn1 [Compound 380, N^2-(6-fluoropyridin-3-yl)-N^4-(oxetan-3-yl)-6-(6-(trifluoromethyl)pyridin-2-yl)-1,3,5-triazine-2,4-diamine]	100 to 1000 nM	100 to 1000 nM	–
CC(C)Nc1nc(Nc2cccc(S(=O)(=O)N3CCC3)c2)nc(-c2ccccc2)n1 [Compound 376, N^2-(3-(azetidin-1-ylsulfonyl)phenyl)-N^4-isopropyl-6-phenyl-1,3,5-triazine-2,4-diamine]	< 100 nM	100 to 1000 nM	–
N#Cc1cc(Nc2nc(NCC3CCCO3)nc(-c3cccc(C(F)(F)F)n3)n2)ccn1 (stereo not shown) [Compound 403, 4-(4-((tetrahydrofuran-2-yl)methylamino)-6-(6-(trifluoromethyl)pyridin-2-yl)-1,3,5-triazin-2-ylamino)picolinonitrile]	< 100 nM	100 to 1000 nM	–
CC(C)Nc1nc(Nc2cncs2)nc(-c2ccccc2)n1 [Compound 313, N^2-isopropyl-6-phenyl-N^4-(thiazol-5-yl)-1,3,5-triazine-2,4-diamine]	< 100 nM	< 100 nM	–
CNc1cccc(-c2nc(Nc3ccccc3)nc(NC(C)C)n2)n1 [Compound 331, N^2-isopropyl-6-(6-(methylamino)pyridin-2-yl)-N^4-phenyl-1,3,5-triazine-2,4-diamine]	< 100 nM	100 to 1000 nM	–
OC1CCCC(Nc2nc(Nc3ccncc3)nc(-c3ccccc3)n2)C1 (stereo not shown) [Compound 304, 3-(4-phenyl-6-(pyridin-4-ylamino)-1,3,5-triazin-2-ylamino)cyclohexanol]	–	1000 to 10000 nM	No Fit
c1ccc(-c2nc(Nc3ccncc3)nc(N[C@@H]3C[C@@H]4CC[C@H]3C4)n2)cc1 [Compound 295, N^2-((1S,2R,4R)-bicyclo[2.2.1]heptan-2-yl)-6-phenyl-N^4-(pyridin-4-yl)-1,3,5-triazine-2,4-diamine]	< 100 nM	< 100 nM	–
CC(C)Nc1nc(Nc2ccnc(F)c2)nc(-c2cccc(Cl)n2)n1 [Compound 384, 6-(6-chloropyridin-2-yl)-N^2-(2-fluoropyridin-4-yl)-N^4-isopropyl-1,3,5-triazine-2,4-diamine]	< 100 nM	100 to 1000 nM	–
CC(C)(O)CNc1nc(Nc2cncc(C(F)(F)F)c2)nc(-c2cccc(C(F)(F)F)n2)n1 [Compound 406, 2-methyl-1-(4-(6-(trifluoromethyl)pyridin-2-yl)-6-(5-(trifluoromethyl)pyridin-3-ylamino)-1,3,5-triazin-2-ylamino)propan-2-ol]	< 100 nM	100 to 1000 nM	–
CC(C)Nc1nc(Nc2ccnc(Cl)c2)nc(-c2cccc(Cl)n2)n1 [Compound 354, 6-(6-chloropyridin-2-yl)-N^2-(2-chloropyridin-4-yl)-N^4-isopropyl-1,3,5-triazine-2,4-diamine]	< 100 nM	100 to 1000 nM	–
c1ccc(Nc2nc(N[C@@H]3C[C@@H]4CC[C@H]3C4)nc(-c3ccccc3)n2)cc1 [Compound 296, N^2-((1S,2R,4R)-bicyclo[2.2.1]heptan-2-yl)-N^4,6-diphenyl-1,3,5-triazine-2,4-diamine]	< 100 nM	100 to 1000 nM	–
Cc1ncc(Nc2nc(NC(C)C)nc(-c3ccccc3)n2)cn1 [Compound 343, N^2-isopropyl-N^4-(2-methylpyrimidin-5-yl)-6-phenyl-1,3,5-triazine-2,4-diamine]	100 to 1000 nM	100 to 1000 nM	–
CC(C)Nc1nc(Nc2ccnc(N(C)C)c2)nc(-c2ccccc2)n1 [Compound 293, N^2-(2-(dimethylamino)pyridin-4-yl)-N^4-isopropyl-6-phenyl-1,3,5-triazine-2,4-diamine]	< 100 nM	< 100 nM	–
